In data set [1] the test system is lamin C. The data set can be described thus: Intramuscular MG132 in Lmna G609G/G609G mice, lamin C in gastrocnemius muscle. The format is in vivo, mouse. As to the method: (A) Lamin A, progerin, lamin C and SRSF-1 specific bands, corresponding to DMSO-treated left muscle (−) and 1 μg/Kg MG132-treated right muscle (+), were quantified by ImageJ software and their expression levels were normalized to GAPDH values.
(§1) Knock-in mouse model (Lmna^G609G/G609G) carrying the c.1827C>T (p.Gly609Gly) mutation in the endogenous Lmna gene, corresponding to the human HGPS mutation c.1824C>T (p.Gly609Gly) have been described previously (31). MG132 (1 or 10 μg/Kg body weight) was injected under isoflurane anesthesia into the right gastrocnemius muscle of […] homozygous knock-in mice (Lmna^G609G/G609G) 3 times per week for 2 weeks. Contralateral muscle served as control (DMSO). MG132 was dissolved in dimethyl sulfoxide (DMSO) and then diluted in 100 μl sterile phosphate-buffered saline (PBS) for intramuscular injection. […] Animal experiments have been carried out in compliance with the European guidelines for the care and use of laboratory animals (EU directive 2010/63/EU) and in accordance with the recommendations provided by the guide for the care and use of the laboratory animals of the French national Institute for Health and Medical Research (INSERM) and the ethical committee of Aix-Marseille University.

Data set [2] has as its system lamin C mRNA. In words: qRT-PCR of lamin C transcripts in HGPS cells. It counts as cell-based, human. The note with it: 10 μM MG132 time-course. As to the method: Total RNA was isolated using the RNeasy plus extraction kit (Qiagen, Valencia, Calif.). 1 μg of RNA was reverse transcribed using the High Capacity cDNA Reverse Transcription Kit (Applied Biosystems). Real time PCR amplification was carried out with the TaqMan® Gene Expression Master Mix (Applied Biosystems) on a LightCycler 480 (Roche, Germany) using pre-designed primers for GAPDH (Hs00266705_g1), Progerin (F: […] (SEQ ID NO:3) R: […] (SEQ ID NO:4) and probe: […] (SEQ ID NO:5)), Lamin A (F: […] (SEQ ID NO:6) R: […] (SEQ ID NO:7) and probe: […] (SEQ ID NO:8)) and lamin C (F: […] (SEQ ID NO:9) R: […] (SEQ ID NO:10) and probe: […] (SEQ ID NO:11)) (Applied Biosystems) using the program: UNG incubation at 50° C. for 2 minutes, initial denaturation at 95° C. for 10 minutes, 40 cycles of amplification: denaturation at 95° C. for 15 seconds and annealing at 60° C. for 1 minute. All PCR reactions were performed in triplicate. Threshold cycle (Ct) values were used to calculate relative mRNA expression by the 2-ΔΔ^T relative quantification method with normalization to GAPDH expression.
In general terms: In qPCR the cycle at which signal appears reflects the starting amount.

Data set [3] concerns SRSF-1. In words: Western blot of SRSF-1 in HGPS fibroblasts. The format is cell-based, human. The following applies: 48 h treatment of HGPS fibroblasts with MG132 (10 μM). As to the method:
(§2) Total fibroblast proteins were extracted in 200 μL of NP40 Cell Lysis buffer (Invitrogen, Carlsbad, Calif.) containing Protease and Phosphatase Inhibitor Cocktail (Thermo Scientific). Alternatively, cells were lysed with urea (8 M urea, 5 mM dithiothreitol, 150 mM NaCl, 50 mM Tris-Cl pH 7.5, protease and phosphatase Inhibitor Cocktail (Thermo Scientific)). Cells were sonicated twice (30 sec each), incubated at 4° C. for 30 minutes and then centrifuged at 10,000 g for 10 minutes. Protein concentration was evaluated with the bicinchoninic acid technique (Pierce BCA Protein Assay Kit), absorbance at 562 nm is measured using nanodrop 1000 (Thermo Fisher Scientific Inc.) Equal amounts of proteins (40 μg) were loaded onto 10% Tis-Glycine gel (Criterion™ XT precast gel) using XT Tricine running Buffer (Biorad, USA). After electrophoresis, gels were electro transferred onto nitrocellulose membranes or Immobilon-FL polyvinylidene fluoride membranes (Millipore), blocked in Odyssey Blocking Buffer diluted 1:1 in PBS for 1 hour at room temperature, and incubated overnight at 4° C. or 2 hours at room temperature with various primary antibodies. Blots were washed with TBS-T buffer [20 mM tris (pH 7.4), 150 mM NaCl, and 0.05% Tween 20] and incubated with 1:10,000 IR-Dye 800-conjugated secondary donkey anti-goat or IR-Dye 700-conjugated secondary anti-mouse antibodies (LI-COR Biosciences) in Odyssey blocking buffer (LI-COR Biosciences). For IR-Dye 800 and IR-Dye 700 detection, an Odyssey Infrared Imaging System (LI-COR Biosciences) was used. GAPDH, α-tubulin or β-actin were used as a total cellular protein loading control.
(In western blotting, separated proteins are transferred to a membrane and probed.)

Data set [4] relates to HGPS cell lines. In words: Quantitation of abnormal nuclear morphology. The format is cell-based, human. The following applies: 10 μM MG132, 48 h. As to the method: The percentage of normal nuclei (nuclei with a smooth oval shape) and abnormal nuclei (nuclei with blebs, irregular shape, or multiple folds) was calculated by manual blind counting. A representative image and the mean values of 3 different experiments are shown. *P<0.05.
Fibroblasts from three HGPS patients (AG01972, AG11498, 5968) and two normal individuals (8471, 8498) were cultured with DMEM medium containing 10 μM MG132, or the same volume of vehicle (DMSO, 0.025% v/v) for 48 h. Cells stained for lamin A/C or DAPI were examined by fluorescence microscopy with an Axioplan 2 imaging microscope (Carl Zeiss). For quantitation of abnormal nuclear morphology, the percentage of normal nuclei (nuclei with a smooth oval shape) and abnormal nuclei (nuclei with blebs, irregular shape, or multiple folds) was calculated by manual blind counting. At least 200 fibroblast nuclei were randomly selected for each cell line and examined in two independent experiments. Results are expressed graphically as the average percentage of the total nuclei counted.

The test system of data set [5] is progerin. The data set can be described thus: Western blot of progerin levels in HGPS fibroblasts. The note with it: for reduction in progerin amounts: normalized with tubulin, vs DMSO-treated HGPS cells. The format is cell-based, human. As to the method: HGPS fibroblasts (AG01972: person, AG11498: person) were obtained from the Coriell Cell Repository. Cells were cultured in Dulbecco's modified Eagle's medium (Life Technologies) supplemented with 15% fetal bovine serum (Life Technologies), 2 mM L-glutamine (Life Technologies) and 1× penicillin-streptomycin (Life Technologies) at 37° C. in a humidified atmosphere containing 5% CO2. […]
as §2

Data set [6] can be described thus: Tolerability of intramuscular MG132 in Lmna G609G/G609G mice. The format is in vivo, mouse. The following applies: 1 or 10 μg/Kg intramuscular. As to the method:
as §1

Data set [7] concerns HGPS fibroblasts, HGPS derived iPS-MSC or iPS-VSMC. In words: CellTiter-Glo Luminescent Cell Viability Assay. The format is cell-based, human. The following applies: 24 h, doses used in this study. As to the method: HGPS fibroblasts, HGPS derived iPS-MSC or iPS-VSMC viability was measured at 24 h post treatment with MG132 at the indicated concentrations using CellTiter-Glo Luminescent Cell Viability Assay. Results are reported as viability percentage of MG132-treated cells relative to untreated cells.
On the technique in general: Cellular ATP, detected with luciferase, serves as a proxy for viable cell number.

Peptide text beside a SMILES is read from it. * marks the point of attachment. Cbz = O=C(OCc1ccccc1)*

Turning to `CC(C)C[C@@H](C=O)NC(=O)[C@H](CC(C)C)NC(=O)[C@H](CC(C)C)NC(=O)OCc1ccccc1` [MG132, Z-Leu-Leu-Leu-al] (Cbz-Leu-Leu-Leu-aldehyde), the “lamin C level in treated muscle” value is recorded as “decrease of lamin C” in data set [1] (1 μg/Kg intramuscular, change not significant) and “decrease in lamin C” in data set [1] (10 μg/kg body weight intramuscular). Moreover, the “lamin C transcript levels” value in data set [2] is on record as “much less pronounced decrease of lamin C transcript levels”. Also, the SRSF-1 levels result in data set [3] was “significant decrease of SRSF-1 levels”. Moreover, in data set [4], the nuclear shape abnormalities result is reported as “improves nuclear shape abnormalities”. Also, the “reduction in progerin amounts” value in data set [5] (10 μM MG132, 6 h) came out at 31%; in data set [5] (10 μM MG132, 24 h), 58%; in data set [5] (10 μM MG132, 48 h) it was 65%. The “progerin level at longer treatment” value in data set [5] (cells solubilized with urea, 72 h of MG132 treatment) was “progerin reappears after 72 h of treatment”. The “apparent damage or stress responses” value in data set [6] is on record as “Neither vehicle alone nor MG132 treatment produced any apparent damage or stress responses”. Also, the viability / mortality result in data set [7] is recorded as “do not induce significant mortality”.
